Data as given in patent US6923951B2, “Non-invasive localization of a light-emitting conjugate in a mammal” (priority 1994, dated 2005).

What was measured:
[1] = system: HIV LTR; assay: DMSO induction of HIV LTR-driven luciferase expression in transgenic mice; assay type: in vivo, mouse
Text: Transgenic mice containing a construct composed of the regulatory portion of the HIV LTR (U3 region) upstream of the coding sequence of the firefly luciferase gene were generated and evaluated for the emission of photons after transmission through tissues. A diagram of the construct is shown at the bottom of FIG. 13. Numbers along the construct indicate nucleotide positions relative to the start of transcription. Sequences matching known motifs of cellular transcription factors are indicated with the names of the factors. Transcription from the HIV LTR was activated in the right ear of each two animals with a single topical application of dimethyl sulfoxide (DMSO). The animal on the left in FIG. 13 was given 150 μl of an aqueous solution of the substrate luciferin (50 mg/ml) via intraperitoneal (i.p.) injection. The animal on the right was not given substrate. 20 min. post treatment with substrate the animals were imaged as described for the plate in FIG. 12 with a 20 min. integration time. […] This technology allows for the temporal and spatial analyses of transcriptional activity in living animals.
The left half of the shaved dorsal surface of the transgenic animals and the left ear were treated twice daily for two days with DMSO to activate expression of the HIV-1 LTR. Luciferin was applied topically over the entire surface of the back and both ears, and animals were imaged immediately after addition of substrate.
This signal is assumed to be due to ingestion of DMSO during grooming (FIG. 17).

[2] = system: dermal cells in transgenic mice
Experimental: In order to optimize delivery of substrate, the substrate was topically delivered to dermal cells. The HIV LTR was induced in the skin of mice with twice daily treatments of DMSO over the entire surface of the back and the right ear for two consecutive days. Substrate was applied to the skin in solutions prepared in DMSO. Concentrations included 200 mM, 100 mM, 50 mM, 25 mM, and 12.5 mM. 5 μl of each concentration were spotted, in quadruplicate, on the backs using a multichannel pipette with the highest concentrations near the head. 5 μl of the 50 mM solution was applied to each ear. 2 min. after application the animal was imaged as described in FIG. 12. […] Solutions of 25% H2O in DMSO to 100% H2O were tested.
The experiment of induction of luciferase expression in ears and systemic luciferin delivery of Example 14 was repeated with topical administration of substrate in 100% DMSO (FIG. 15). […] See, FIGS. 13 and 15.

[3] = system: SL1344lux Salmonella; assay: Effects of ciprofloxacin treatment on bioluminescence from SL1344lux Salmonella in orally inoculated mice; assay type: in vivo, Salmonella typhimurium
Experimental: Effects of Ciprofloxacin on Salmonella Infection. […] Mice are orally inoculated with SL1344lux and treated with […] of ciprofloxacin, an antibiotic effective against Salmonella infections. The mice are imaged at selected time periods following treatment, and the extent of infection is quantitated by measuring photon emission. Photon emission in treated mice is compared to values before the initiation of treatment, and to values from control mice that had been infected, but not treated. Results from one such experiment are shown in FIGS. 11A, 11B, 11C, 11D, and 11E and discussed in Example 10.
Animals or objects to be imaged were immobilized in a light-tight box containing a door and a charge-coupled device (CCD) camera with a two stage microchannel intensifier head (model C2400-40, Hamamatsu). The camera was attached, via cables leading out of the box, to an “ARGUS 50” image processor (Hamamatsu).
Bioluminescence images were generated by integrating photons for a selected period of time, typically 5 minutes. […]
FIGS. 11B and 11D show composite images of representative animals from the control and treated groups, respectively, immediately before initiation of treatment of the experimental group. […] The total number of photons detected over the abdominal area were determined, normalized to the value at t=0, and plotted in FIG. 11A with respect to time post-treatment.

C[S+](C)[O-] [DMSO, dimethyl sulfoxide]
Bioluminescence from internal tissues ([1]; animals treated with DMSO on one ear only): Bioluminescence was detectable from the abdomens
Bioluminescence after unilateral DMSO treatment ([1]; left half of shaved dorsal surface and left ear treated twice daily for two days, luciferin topical over back and both ears): Unilateral emission of bioluminescence corresponding to the induced region
Bioluminescence from the DMSO-induced ear ([1]; single topical application of DMSO on right ear, luciferin 150 μl of 50 mg/ml i.p., imaged 20 min. post substrate): light emission over the right ear

O=C(O)[C@H]1CSC(c2nc3ccc(O)cc3s2)=N1 [luciferin]
Bioluminescence from spots containing 200 mM luciferin ([2]; 5 μl spots in DMSO on DMSO-induced back skin): roughly equivalent to that from the 100 mM spots
Bioluminescent response versus topical luciferin concentration ([2]; 5 μl spots of luciferin in DMSO on DMSO-induced back skin, imaged 2 min. after application): increase linearly over the concentrations from 12.5 mM to 100 mM
Bioluminescence from solutions of luciferin containing water ([2]; mouse, in vivo): no detectable bioluminescence
Time of peak light emission, systemic substrate ([2]; mouse, in vivo): 20 to 30 min
Time of peak light emission, topical substrate ([2]; mouse, in vivo): immediately after topical treatment

O=C(O)c1cn(C2CC2)c2cc(N3CCNCC3)c(F)cc2c1=O [ciprofloxacin]
Bioluminescence over the abdomen ([3]; Balb/c mice orally inoculated with SL1344lux, at 8 days p.i. 100 mg ciprofloxacin hydrochloride i.p. (3 mg/kg body weight), 5.5 h after initiation of treatment): reduced to undetectable levels
Infection (photon emission) compared to time zero and to untreated control mice ([3]; mice orally inoculated with SL1344lux, treated with 100 mg of ciprofloxacin): significantly reduced
